Source: patent publication US20100298141A1, “SUBSTITUTED PYRIDINE N-OXIDE HERBICIDES” (E. I. DU PONT DE NEMOURS AND COMPANY, priority 2007, published 2010)

How the values were obtained:
soybean = assay: Test C pre-/postemergence test; assay type: in vivo, Glycine max
Procedure, shortened: (§1)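 Compounds in a non-phytotoxic solvent with surfactant applied preemergence to seeded pots and, at the same time, postemergence to plants 2–18 cm tall (1- to 4-leaf stage). Paddy tests: pots flooded to 3 cm, compound applied into the water, depth held throughout.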

downy brome = assay: Test C pre-/postemergence test; assay type: in vivo, Bromus tectorum
Procedure, shortened: as §1

velvetleaf [1] = assay: Test C pre-/postemergence test; assay type: in vivo, Abutilon theophrasti; details: for Velvetleaf plant response rating: preemergence, scale 0 (no effect) to 100 (complete control)
Procedure, shortened: as §1

Surinam grass = assay: Test C pre-/postemergence test; assay type: in vivo, Brachiaria decumbens; details: for Surinam Grass plant response rating: preemergence, scale 0 (no effect) to 100 (complete control)
Procedure, shortened: as §1

lambsquarters = assay: Test C pre-/postemergence test; assay type: in vivo, Chenopodium album
Procedure, shortened: as §1

catchweed bedstraw = assay: Test C pre-/postemergence test; assay type: in vivo, Galium aparine
Procedure, shortened: as §1

giant foxtail = assay: Test A pre-/postemergence greenhouse test; assay type: in vivo, Setaria faberi; details: for Foxtail, Giant plant response rating: 0 to 100 scale
Procedure, shortened: (§2)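 Two application timings were run side by side in the greenhouse. Before emergence, compound went onto the soil surface of loam–sand pots as a directed spray; after emergence, plants at 2–10 cm and the one- to two-leaf stage were treated. Visual injury versus controls was rated at approximately day ten.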

green foxtail = assay: Test C pre-/postemergence test; assay type: in vivo, Setaria viridis
Procedure, shortened: as §1

crabgrass = assay: Test A pre-/postemergence greenhouse test; assay type: in vivo, Digitaria sanguinalis; details: for Crabgrass, Large plant response rating: 0 to 100 scale
Procedure, shortened: as §2

velvetleaf [2] = assay: Test A pre-/postemergence greenhouse test; assay type: in vivo, Abutilon theophrasti; details: for Velvetleaf plant response rating: 0 to 100 scale
Procedure, shortened: as §2

barnyardgrass [3] = assay: Test C flooded paddy test; assay type: in vivo, Echinochloa crus-galli; details: Flood
Procedure, shortened: (§3)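 Ratings were visual and made relative to untreated controls after 13 to 15 greenhouse days.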

common ragweed = assay: Test C pre-/postemergence test; assay type: in vivo, Ambrosia elation
Procedure, shortened: as §1

duck salad = assay: Test C flooded paddy test; assay type: in vivo, Heteranthera limosa; details: Flood
Procedure, shortened: as §3

woolly cupgrass = assay: Test C pre-/postemergence test; assay type: in vivo, Eriochloa villosa
Procedure, shortened: as §1

barnyardgrass [4] = assay: Test A pre-/postemergence greenhouse test; assay type: in vivo, Echinochloa crus-galli; details: for Barnyardgrass plant response rating: 0 to 100 scale
Procedure, shortened: as §2

pigweed = assay: Test C pre-/postemergence test; assay type: in vivo, Amaranthus retroflexus
Procedure, shortened: as §1

blackgrass = assay: Test C pre-/postemergence test; assay type: in vivo, Alopecurus myosuroides
Procedure, shortened: as §1

[5] = 31 g ai/ha, Preemergence, scale 0 to 100
[6] = 62 g ai/ha, preemergence, scale 0 (no effect) to 100 (complete control)
[7] = preemergence, 125 g ai/ha, scale 0 (no effect) to 100 (complete control)
[8] = Postemergence, 125 g ai/ha, 0 is no effect, 100 is complete control
[9] = Postemergence, 500 g ai/ha, 0 is no effect, 100 is complete control
[10] = Preemergence, 125 g ai/ha, 0 no effect, 100 complete control
[11] = Preemergence, 500 g ai/ha, 0 to 100 scale where 0 is no effect and 100 is complete control
[12] = 31 g ai/ha, scale 0 to 100 (0 no effect, 100 complete control)
[13] = 62 g ai/ha, scale 0 to 100, 0 no effect, 100 complete control, 13 to 15 days
[14] = 125 g ai/ha, scale 0 to 100, 0 no effect, 100 complete control, 13 to 15 days
[15] = 250 g ai/ha, scale 0 to 100 (0 no effect, 100 complete control)

Cn1nc(C(F)(F)F)c(C[S+]([O-])c2cccc[n+]2[O-])c1Cl (centres unmarked) [Compound 8]
Soybean plant response rating (soybean; [5]): 0
Soybean plant response rating (soybean; [6]): 0
Plant response rating (0 to 100), Soybean (soybean; Preemergence, 250 g ai/ha): 90
Soybean plant response rating (soybean; [7]): 80
Bromegrass, Downy plant response rating (downy brome; [5]): 0
Bromegrass, Downy plant response rating (downy brome; [6]): 0
Plant response rating (0 to 100), Bromegrass, Downy (downy brome; Preemergence, 250 g ai/ha): 85
Bromegrass, Downy plant response rating (downy brome; [7]): 80
Velvetleaf plant response rating (velvetleaf [1]; 62 g ai/ha): 45
Plant response rating (0 to 100), Velvetleaf (velvetleaf [1]; Preemergence, 250 g ai/ha): 100
Velvetleaf plant response rating (velvetleaf [1]; 125 g ai/ha): 98
Surinam Grass plant response rating (Surinam grass; 62 g ai/ha): 85
Plant response rating (0 to 100), Surinam Grass (Surinam grass; Preemergence, 250 g ai/ha): 100
Surinam Grass plant response rating (Surinam grass; 125 g ai/ha): 100
Lambsquarters plant response rating (lambsquarters; [5]): 80
Lambsquarters plant response rating (lambsquarters; [6]): 98
Plant response rating (0 to 100), Lambsquarters (lambsquarters; Preemergence, 250 g ai/ha): 100
Lambsquarters plant response rating (lambsquarters; [7]): 100
Galium plant response rating (catchweed bedstraw; [5]): 0
Galium plant response rating (catchweed bedstraw; [6]): 100
Galium plant response rating (catchweed bedstraw; [7]): 100
Foxtail, Giant plant response rating (giant foxtail; [8]): 80
Foxtail, Giant plant response rating (giant foxtail; [9]): 90
Foxtail, Giant plant response rating (giant foxtail; [10]): 100
Plant response rating, Foxtail, Giant (giant foxtail; [11]): 100
Foxtail, Green plant response rating (green foxtail; [5]): 100
Foxtail, Green plant response rating (green foxtail; [6]): 100
Plant response rating (0 to 100), Foxtail, Green (green foxtail; Preemergence, 250 g ai/ha): 100
Foxtail, Green plant response rating (green foxtail; [7]): 100
Crabgrass, Large plant response rating (crabgrass; [8]): 80
Crabgrass, Large plant response rating (crabgrass; [9]): 90
Crabgrass, Large plant response rating (crabgrass; [10]): 90
Plant response rating, Crabgrass, Large (crabgrass; [11]): 100
Velvetleaf plant response rating (velvetleaf [2]; [8]): 40
Velvetleaf plant response rating (velvetleaf [2]; [9]): 70
Velvetleaf plant response rating (velvetleaf [2]; [10]): 70
Plant response rating, Velvetleaf (velvetleaf [2]; [11]): 80
Plant response rating, Barnyardgrass (barnyardgrass [3]; [12]): 0
Plant response rating, Barnyardgrass (barnyardgrass [3]; [13]): 0
Plant response rating, Barnyardgrass (barnyardgrass [3]; [14]): 40
Plant response rating, Barnyardgrass (barnyardgrass [3]; [15]): 85
Ragweed plant response rating (common ragweed; [5]): 50
Ragweed plant response rating (common ragweed; [6]): 60
Plant response rating (0 to 100), Ragweed (common ragweed; Preemergence, 250 g ai/ha): 90
Ragweed plant response rating (common ragweed; [7]): 60
Plant response rating, Ducksalad (duck salad; [12]): 0
Plant response rating, Ducksalad (duck salad; [13]): 0
Plant response rating, Ducksalad (duck salad; [14]): 50
Plant response rating, Ducksalad (duck salad; [15]): 90
Cupgrass, Woolly plant response rating (woolly cupgrass; [5]): 70
Cupgrass, Woolly plant response rating (woolly cupgrass; [6]): 98
Plant response rating (0 to 100), Cupgrass, Woolly (woolly cupgrass; Preemergence, 250 g ai/ha): 100
Cupgrass, Woolly plant response rating (woolly cupgrass; [7]): 100
Barnyardgrass plant response rating (barnyardgrass [4]; [8]): 80
Barnyardgrass plant response rating (barnyardgrass [4]; [9]): 80
Barnyardgrass plant response rating (barnyardgrass [4]; [10]): 90
Plant response rating, Barnyardgrass (barnyardgrass [4]; [11]): 100
Pigweed plant response rating (pigweed; [5]): 85
Pigweed plant response rating (pigweed; [6]): 100
Plant response rating (0 to 100), Pigweed (pigweed; Preemergence, 250 g ai/ha): 100
Pigweed plant response rating (pigweed; [7]): 100
Blackgrass plant response rating (blackgrass; [5]): 0
Blackgrass plant response rating (blackgrass; [6]): 0
Plant response rating (0 to 100), Blackgrass (blackgrass; Preemergence, 250 g ai/ha): 100
Blackgrass plant response rating (blackgrass; [7]): 100
